Measurements published in patent US6413542B1, “Direct pour-on antiparasitic skin solution and methods for treating, preventing and controlling myasis” (Merial, priority 1996, dated 2002).

Tests used:
[1] = tested on: Boophilus microplus; assay: Example 2: efficacy of pour-on skin solutions against Boophilus microplus on artificially infested cattle (tick counts); format: in vivo; conditions: skin solution containing 1% compound A, 1 ml per 10 kg along the line of the back
Protocol: Study of the efficacy of skin solutions according to the invention containing, respectively, 0.25, 0.50 and 1% compound A to combat Boophilus microplus.
The study was performed on 16 young male castrated Herefords (weight ranging between 114 and 172 kg).
Three skin solutions according to Example 1 were prepared:
A placebo was prepared, which differed from the skin solutions according to the invention in that it contained no compound A.
In the studies, 1 ml of skin solution or of placebo were used per 10 kg of animal weight.
The dose volume was applied along the line of the animal's back, from the head to the base of the tail.
Between days-24 and -1, the animals were artificially infested on 11 occasions with 2,500 Boophilus microplus larvae. The aim of 24-day infestation is to ensure that all of the stages of Boophilus microplus are present on the animal (eggs, larvae, adults).
On day 0, the animals receive one of the skin solutions or the placebo.
Before the skin solutions or the placebo are applied, the number of ticks present on the various animals in the different groups are counted.
The blood-engorged female ticks which become detached are included in the count.

[2] = Solubility of compound A in the solvent acetyl tributyl citrate; format: physicochemical
Text: The solvent will be used in proportion with the concentration of the compound I and its solubility in this solvent.
It will be sought to have the lowest possible volume.

[3] = tested on: Boophilus microplus; assay: Example 4: efficacy over time of skin solutions on cattle re-infested with larvae for 13 weeks; format: in vivo; parameters: Efficacy index: scale not given here
Text: Study of efficacy over time.
Skin solutions according to the invention containing 0.25, 0.5 or 1% compound A where used in this example.
The composition of these solutions is the same as for the above examples.
The cattle were preinfested so as to have all of the stages of Boophilus microplus present (infestation with 5,000 larvae, 22 days, 15 days and 8 days before application of the skin solution).
After application of the skin solutions, the cattle are again infested with the larvae for 13 weeks, to determine the efficacy of the three concentrations.

`N#Cc1nn(-c2c(Cl)cc(C(F)(F)F)cc2Cl)c(N)c1[S+]([O-])C(F)(F)F` (stereo not drawn) [compound A, 1-[2,6-Cl2 4-CF3phenyl]3-CN 4-[SO-CF3]5-NH2pyrazole] showed an efficacy [1] of 100%, a solubility [2] of 4.3 % m/V and an Efficacy index ([3]; 0.25% solution, week 1 of infestation after treatment) of 97.6. It also gave an Efficacy index ([3]; 0.25% solution, week 2 of infestation after treatment) of 98.8, an Efficacy index ([3]; 0.25% solution, week 3 of infestation after treatment) of 99.7 and an Efficacy index ([3]; 0.25% solution, week 4 of infestation after treatment) of 99.3. It also gave an Efficacy index ([3]; 0.25% solution, week 5 of infestation after treatment) of 96.7, an Efficacy index ([3]; 0.25% solution, week 6 of infestation after treatment) of 98.6 and an Efficacy index ([3]; 0.25% solution, week 7 of infestation after treatment) of 92.4. The Efficacy index ([3]; 0.25% solution, week 8 of infestation after treatment) was 85.8, the Efficacy index ([3]; 0.25% solution, week 9 of infestation after treatment) was 28.0 and the Efficacy index ([3]; 0.25% solution, week 10 of infestation after treatment) was 23.0. For the same compound, the Efficacy index ([3]; 0.25% solution, week 11 of infestation after treatment) was 18.9, the Efficacy index ([3]; 0.25% solution, week 12 of infestation after treatment) was 1.7 and the Efficacy index ([3]; 0.25% solution, week 13 of infestation after treatment) was 8.4. It also gave an Efficacy index ([3]; 0.5% solution, week 1 of infestation after treatment) of 100, an Efficacy index ([3]; 0.5% solution, week 2 of infestation after treatment) of 100 and an Efficacy index ([3]; 0.5% solution, week 3 of infestation after treatment) of 100. For the same compound, the Efficacy index ([3]; 0.5% solution, week 4 of infestation after treatment) was 100, the Efficacy index ([3]; 0.5% solution, week 5 of infestation after treatment) was 92.9 and the Efficacy index ([3]; 0.5% solution, week 6 of infestation after treatment) was 93.2. It also gave an Efficacy index ([3]; 0.5% solution, week 7 of infestation after treatment) of 88.6, an Efficacy index ([3]; 0.5% solution, week 8 of infestation after treatment) of 83.4 and an Efficacy index ([3]; 0.5% solution, week 9 of infestation after treatment) of 37.9. It also gave an Efficacy index ([3]; 0.5% solution, week 10 of infestation after treatment) of 41.4, an Efficacy index ([3]; 0.5% solution, week 11 of infestation after treatment) of 55.2 and an Efficacy index ([3]; 0.5% solution, week 12 of infestation after treatment) of 37.3. It also gave an Efficacy index ([3]; 0.5% solution, week 13 of infestation after treatment) of 48.5, an Efficacy index ([3]; 1.0% solution, week 1 of infestation after treatment) of 100 and an Efficacy index ([3]; 1.0% solution, week 2 of infestation after treatment) of 100. The Efficacy index ([3]; 1.0% solution, week 3 of infestation after treatment) was 100, the Efficacy index ([3]; 1.0% solution, week 4 of infestation after treatment) was 100 and the Efficacy index ([3]; 1.0% solution, week 5 of infestation after treatment) was 100. For the same compound, the Efficacy index ([3]; 1.0% solution, week 6 of infestation after treatment) was 100, the Efficacy index ([3]; 1.0% solution, week 7 of infestation after treatment) was 99.7 and the Efficacy index ([3]; 1.0% solution, week 8 of infestation after treatment) was 100. For the same compound, the Efficacy index ([3]; 1.0% solution, week 9 of infestation after treatment) was 79.8, the Efficacy index ([3]; 1.0% solution, week 10 of infestation after treatment) was 65.3 and the Efficacy index ([3]; 1.0% solution, week 11 of infestation after treatment) was 61.5. For the same compound, the Efficacy index ([3]; 1.0% solution, week 12 of infestation after treatment) was 32.2, the Efficacy index ([3]; 1.0% solution, week 13 of infestation after treatment) was 46.4 and the “period of efficacy against Boophilus microplus” value ([3]; pour-on skin solutions, cattle) was “two”.
